The target in one assay is MNK2a (Homo sapiens (Human), UniProt Q9HBH9). Nature of the assay: MNK2a in vitro kinase assay (Assay 2), ADP-Glo. Format: biochemical. Particulars: read-out: MNK2 IC50. For orientation: ADP-Glo turns the ADP formed in a reaction into a luminescent signal.
Another assay has as its target MNK1 (Homo sapiens (Human), UniProt Q9BUB5). The experiment in a line: MNK1 in vitro kinase assay (Assay 3), Z'-LYTE. Format: biochemical. Particulars: for inhibition at 1 µM: compound concentration of 1 μM, read-out: MNK1 % INH. An excerpt:
C. MNK1 In vitro Kinase Assay (Assay 3)
MNK1 Data can be obtained from the MNK1 Z′-LYTE® assay. The MNK1 Z′-LYTE® screening protocol and assay conditions are also described on www.invitrogen.com.
The assay is described as follows:
The Z′-LYTE® biochemical assay employs a fluorescence-based, coupled-enzyme format and is based on the differential sensitivity of phosphorylated and non-phosphorylated peptides to proteolytic cleavage. The peptide substrate is labeled with two fluorophores—one at each end—that make up a FRET pair.
In the primary reaction, the kinase transfers the gamma-phosphate of ATP to a single tyrosine, serine or threonine residue in a synthetic FRET-peptide. In the secondary reaction, a site-specific protease recognizes and cleaves non-phosphorylated FRET-peptides. Phosphorylation of FRET-peptides suppresses cleavage by the Development Reagent. Cleavage disrupts FRET between the donor (i.e., coumarin) and acceptor (i.e., fluorescein) fluorophores on the FRET-peptide, whereas uncleaved, phosphorylated FRET-peptides maintain FRET. A ratiometric method, which calculates the ratio (the Emission Ratio) of donor emission to acceptor emission after excitation of the donor fluorophore at 400 nm, is used to quantitate reaction progress, as shown in the equation below.
ASSAY SETUP: The inhibition of kinase activity of MNK1a was assessed using pre-activated GST-MNK1a. The 2×MKNK1 (MNK1) mixture is prepared in 50 mM HEPES pH 7.5, 0.01% BRIJ-35, 10 mM MgCl2, 4 mM MnCl2, 1 mM EGTA, 2 mM DTT.
The Test Compounds are screened in 1% DMSO (final) in the well.
All Peptide/Kinase Mixtures are diluted to a 2× working concentration in the MNK1 Kinase Buffer.
All ATP Solutions are diluted to a 4× working concentration in Kinase Buffer (50 mM HEPES pH 7.5, 0.01% BRIJ-35, 10 mM MgCl2, 1 mM EGTA).
Development Reagent Solution:
The Development Reagent is diluted in Development Buffer
1. 2.5 μL—4× Test Compound
2. 5 μL—2× Peptide/Kinase Mixture
5. 60-minute Kinase Reaction incubation at room temperature
6. 5 μl—Development Reagent Solution
8. 60-minute Development Reaction incubation at room temperature
9. Read on fluorescence plate reader and analyze the data
The following equations are used for each set of data points: […]
Correction for Background Fluorescence: FlSample-FlTCFl Ctl
% Phosphorylation (% Phos): 1−((Emission Ratio×F100%)−C100%)/((C0%−C100%)+[Emission Ratio×(F100%−F0%)])*100%
% Inhibition: 1−(% PhosSample/% Phos0% Inhibition Ctl)*100
Fl=Fluorescence Intensity
C100%=Average Coumarin emission signal of the 100% Phos. Control
C0%=Average Coumarin emission signal of the 0% Phos. Control
F100%=Average Fluorescein emission signal of the 100% Phos. Control
F0%=Average Fluorescein emission signal of the 0% Phos. Control
SelectScreen® Kinase Profiling Service uses XLfit from IDBS.

The values below come from patent US9139577B2, “Sulfoximine substituted quinazolines for pharmaceutical compositions” (Boehringer Ingelheim International GmbH, priority 2013, dated 2015).

Molecules are shown by their SMILES.

Sequence of MNK1 (Q9BUB5 other isoform, or with tags, fused parts or gaps): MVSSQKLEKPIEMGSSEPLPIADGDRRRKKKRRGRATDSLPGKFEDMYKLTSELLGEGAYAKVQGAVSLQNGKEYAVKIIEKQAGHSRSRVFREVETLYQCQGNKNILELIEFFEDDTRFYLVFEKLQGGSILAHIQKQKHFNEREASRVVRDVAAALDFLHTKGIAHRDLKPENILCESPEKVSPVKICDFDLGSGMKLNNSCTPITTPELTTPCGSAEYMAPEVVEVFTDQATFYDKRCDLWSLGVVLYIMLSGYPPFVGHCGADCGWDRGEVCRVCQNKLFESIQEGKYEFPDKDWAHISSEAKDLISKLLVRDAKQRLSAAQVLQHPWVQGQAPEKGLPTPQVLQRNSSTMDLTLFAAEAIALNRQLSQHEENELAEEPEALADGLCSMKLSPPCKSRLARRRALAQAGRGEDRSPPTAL
Sequence of MNK2a (Q9HBH9 whole entry): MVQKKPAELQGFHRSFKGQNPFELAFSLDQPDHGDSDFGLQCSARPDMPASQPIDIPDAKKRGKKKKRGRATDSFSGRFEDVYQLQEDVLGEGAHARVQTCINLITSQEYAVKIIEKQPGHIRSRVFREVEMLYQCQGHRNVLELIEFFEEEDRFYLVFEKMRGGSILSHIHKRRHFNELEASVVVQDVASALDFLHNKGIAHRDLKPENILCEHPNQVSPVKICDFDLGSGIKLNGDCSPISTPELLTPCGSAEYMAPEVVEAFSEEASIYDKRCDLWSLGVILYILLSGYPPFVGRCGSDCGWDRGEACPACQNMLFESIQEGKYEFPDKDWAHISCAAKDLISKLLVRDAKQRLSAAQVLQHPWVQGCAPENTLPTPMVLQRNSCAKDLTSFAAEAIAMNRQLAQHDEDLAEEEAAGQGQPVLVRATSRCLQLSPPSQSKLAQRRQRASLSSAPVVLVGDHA

Usually IC50 stands for the concentration at which inhibition is half-maximal. On to `CS(C)(=O)=Nc1cc(C(F)(F)F)c2c(Nc3ccc(F)cc3OC(CF)CF)ncnc2c1` [Example 1.002], for which the IC50 at MNK2a amounted to 6 nM. Also, at MNK1, the inhibition at 1 µM worked out at 59%.
As to `C[C@@H](Oc1cc(F)ccc1Nc1ncnc2cc(N=S(C)(C)=O)cc(Cl)c12)C(F)(F)F` [Example 1.003], the IC50 on MNK2a was found to be 1 nM. In addition, the inhibition at 1 µM at MNK1 came to 95%.
In the case of `O=S1(=Nc2cc(C(F)(F)F)c3c(Nc4ccc(F)cc4OC(CF)CF)ncnc3c2)CCCC1` [Example 1.004], the IC50 at MNK2a worked out at 3 nM. The inhibition at 1 µM at MNK1 is 79%.
For `CCS(C)(=O)=Nc1cc(Cl)c2c(Nc3cccnc3O[C@H](C)c3cc(C)no3)ncnc2c1` (stereo partly drawn) [Example 1.005] the same measures were 2 nM and 98%.
Taken in the same sequence, the figures for `CC(CF)Oc1cc(F)ccc1Nc1ncnc2cc(N=S(C)(C)=O)cc(F)c12` (stereo not drawn) [Example 1.006] were 5 nM and 96%.
As for `CCOC(Oc1ncccc1Nc1ncnc2cc(N=S(C)(C)=O)cc(C)c12)C(F)(F)F` (stereo not drawn) [Example 1.008], the IC50 at MNK2a turned out to be 8 nM. In addition, the inhibition at 1 µM on MNK1 amounted to 63%.
For `O=S1(=Nc2cc(C(F)(F)F)c3c(Nc4ccc(F)cc4OC(CF)CF)ncnc3c2)CCNCC1` [Example 1.009] the same measures were 26 nM and 64%.
Turning to `Cc1cc(N=S2(=O)CCCC2)cc2ncnc(Nc3ccc(F)cc3OC(CF)CF)c12` [Example 1.011], the IC50 at MNK2a stood at 2 nM; on MNK1, 34 nM.
As to `Cc1cc(C(C)Oc2cc(C(N)=O)ccc2Nc2ncnc3cc(N=S(C)(C)=O)cc(C)c23)on1` (stereo not drawn) [Example 1.012], the IC50 on MNK2a amounted to 6 nM. The inhibition at 1 µM at MNK1 is 96%.
Taken in the same sequence, the figures for `Cc1cc(N=S(C)(C)=O)cc2ncnc(Nc3ccc(C(N)=O)cc3OC(C)C)c12` [Example 1.014] were 5 nM and 97%.
Consider `Cc1cc(N=S(C)(C)=O)cc2ncnc(Nc3ccc(F)cc3OC(C)CF)c12` (stereo not drawn) [Example 1.015], for which the IC50 on MNK2a was found to be 54 nM. At MNK1, the inhibition at 1 µM was 100%.
With `Cc1cc([C@@H](C)Oc2ncccc2Nc2ncnc3cc(N=S(C)(C)=O)cc(Cl)c23)on1` [Example 1.016], the values for the IC50 on MNK2a and against MNK1 were 1 nM and 53 nM, respectively.
Turning to `CS(C)(=O)=Nc1cc(F)c2c(Nc3ccc(F)cc3OC(CF)CF)ncnc2c1` [Example 1.018], at MNK2a, the IC50 worked out at 6 nM. In addition, the inhibition at 1 µM at MNK1 was 93%.
Consider `Cc1cc([C@@H](C)Oc2cc(F)ccc2Nc2ncnc3cc(N=S(C)(C)=O)cc(Cl)c23)on1` [Example 1.019], for which the IC50 at MNK2a was 1 nM; against MNK1, 54 nM.
In the case of `CC(Oc1cc(F)ccc1Nc1ncnc2cc(N=S(C)(C)=O)cc(F)c12)C(F)(F)F` (stereo not drawn) [Example 1.020], the half-inhibitory concentration (IC50) on MNK2a is 7 nM. In addition, the inhibition at 1 µM at MNK1 is 80%.
Taken in the same sequence, the figures for `O=S1(=Nc2cc(C(F)(F)F)c3c(Nc4ccc(F)cc4OC(CF)CF)ncnc3c2)CCOCC1` [Example 1.021] were 1 nM and 52%.
Take `CS(C)(=O)=Nc1cc(C2CC2)c2c(Nc3ccc(F)cc3OC(CF)CF)ncnc2c1` [Example 1.022]: the IC50 on MNK2a is 3 nM. Besides, at MNK1, the inhibition at 1 µM worked out at 79%.
As for `CCOC(Oc1cc(F)ccc1Nc1ncnc2cc(N=S(C)(C)=O)cc(C)c12)C(F)(F)F` (stereo not drawn) [Example 1.023], the IC50 at MNK2a came to 8 nM. The inhibition at 1 µM at MNK1 worked out at 65%.
Consider `Cc1cc(N=S2(=O)CCCC2)cc2ncnc(Nc3ccc(F)cc3OC(C)C(C)(C)O)c12` (stereo not drawn) [Example 2.001], for which the IC50 on MNK2a came out at 5 nM; against MNK1, 228 nM.
As to `Cc1cc(C(C)Oc2cc(F)ccc2Nc2ncnc3cc(N=S(C)(C)=O)cc(F)c23)on1` (stereo not drawn) [Example 2.002], at MNK2a, the IC50 turned out to be 6 nM. In addition, on MNK1, the inhibition at 1 µM worked out at 94%.
Taken in the same sequence, the figures for `Cc1cc(N=S(C)(C)=O)cc2ncnc(Nc3ccc(F)cc3OC(C)C(C)(C)O)c12` (stereo not drawn) [Example 2.003] were 13 nM and 76%.
Taken in the same sequence, the figures for `Cc1cc(N=S2(=O)CCCC2)cc2ncnc(Nc3ccc(F)cc3OCc3ccccc3)c12` [Example 2.004] were 6 nM and 75%.
For `Cc1cc(N=S2(=O)CCCC2)cc2ncnc(Nc3cccnc3OCC3CCOC3)c12` (stereo not drawn) [Example 2.005] the same measures were 1 nM and 96%.
As for `Cc1cc(N=S2(=O)CCC2)cc2ncnc(Nc3ccc(F)cc3O[C@H](C)C(F)(F)F)c12` [Example 2.006], the IC50 is 2 nM on MNK2a and 71 nM against MNK1.
For the compound `Cc1cc([C@@H](C)Oc2cc(F)ccc2Nc2ncnc3cc(N=S(C)(C)=O)cc(C)c23)on1` [Example 2.008], the IC50 amounted to 1 nM at MNK2a and 25 nM against MNK1.
Taken in the same sequence, the figures for `Cc1cc([C@@H](C)Oc2ncccc2Nc2ncnc3cc(N=S4(=O)CCCC4)cc(C)c23)on1` [Example 2.009] were 1 nM and 49 nM.
Regarding `Cc1cc(N=S(C)(C)=O)cc2ncnc(Nc3ccc(F)cc3OC(C)C(C)(C)C#N)c12` (stereo not drawn) [Example 2.010], at MNK2a, the IC50 worked out at 11 nM. The inhibition at 1 µM on MNK1 was found to be 76%.
For `Cc1cc(N=S(C)(C)=O)cc2ncnc(Nc3ccc(F)cc3OC(C)C)c12` [Example 2.011] the same measures were 2 nM and 94%.
For `Cc1cc([C@@H](C)Oc2cc(F)ccc2Nc2ncnc3cc(N=S4(=O)CCCC4)cc(C)c23)on1` [Example 2.012] the same measures were 28 nM and 102%.
For `Cc1cc([C@@H](C)Oc2cc(F)ccc2Nc2ncnc3cc(N=S4(=O)CCCC4)cc(Cl)c23)on1` [Example 2.014] the same measures were 2 nM and 99%.
On to `Cc1cc(N=S(C)(C)=O)cc2ncnc(Nc3cccnc3OC(C)C)c12` [Example 2.017], for which the IC50 on MNK2a stood at 2 nM. On MNK1, the inhibition at 1 µM is 90%.
For `Cc1cc([C@@H](C)Oc2ncccc2Nc2ncnc3cc(N=S(C)(C)=O)cc(C)c23)on1` [Example 2.018], the figures for the IC50 at MNK2a and on MNK1 were 1 nM and 34 nM, respectively.
Regarding `Cc1cc(N=S2(=O)CCCC2)cc2ncnc(Nc3ccc(F)cc3O[C@H](C)C(F)(F)F)c12` [Example 2.048], the IC50 at MNK2a was determined as 2 nM; at MNK1 it was 40 nM.
Taken in the same sequence, the figures for `Cc1cc(N=S(C)(C)=O)cc2ncnc(Nc3ccc(F)cc3OC(CF)CF)c12` [Example 3.001] were 2 nM and 60 nM.
As to `Cc1cc(N=S(C)(C)=O)cc2ncnc(Nc3ccc(F)cc3OC(C)c3ncco3)c12` (stereo not drawn) [Example 3.002], the IC50 at MNK2a was 8 nM. The inhibition at 1 µM at MNK1 was found to be 80%.
Taken in the same sequence, the figures for `Cc1cc(N=S(C)(C)=O)cc2ncnc(Nc3ccc(F)cc3OC[C@H]3CNC(=O)O3)c12` [Example 3.003] were 2 nM and 73%.
Taken in the same sequence, the figures for `Cc1cc(N=S(C)(C)=O)cc2ncnc(Nc3ccc(F)cc3OCC3CCCCO3)c12` (stereo not drawn) [Example 3.006] were 1 nM and 70%.
Taken in the same sequence, the figures for `Cc1cc(N=S(C)(C)=O)cc2ncnc(Nc3ccc(F)cc3OC(C)c3cccnc3)c12` (stereo not drawn) [Example 3.007] were 9 nM and 96%.
Regarding `Cc1cc(N=S(C)(C)=O)cc2ncnc(Nc3ccc(F)cc3OCC3CC3(F)F)c12` (stereo not drawn) [Example 3.008], the IC50 on MNK2a was 5 nM. Also, the inhibition at 1 µM on MNK1 turned out to be 89%.
Regarding `Cc1cc(COc2cc(F)ccc2Nc2ncnc3cc(N=S(C)(C)=O)cc(C)c23)no1` [Example 3.009], the IC50 on MNK2a was determined as 7 nM. Further, the inhibition at 1 µM at MNK1 amounted to 95%.
Taken in the same sequence, the figures for `CCOC(=O)[C@@H](C)Oc1cc(F)ccc1Nc1ncnc2cc(N=S3(=O)CCCC3)cc(C)c12` [Example 3.012] were 23 nM and 100%.
Take `Cc1cc(N=S(C)(C)=O)cc2ncnc(Nc3ccc(F)cc3O[C@H](C)C(=O)N(C)CCc3ccccc3)c12` [Example 4.037]: the inhibition at 1 µM on MNK1 came to 45%.
Consider `COC1CCN(C(=O)[C@@H](C)Oc2cc(F)ccc2Nc2ncnc3cc(N=S(C)(C)=O)cc(C)c23)CC1` [Example 4.073], for which the inhibition at 1 µM at MNK1 came out at 70%.
